Reference: patent US20260034044A1, “A PRESERVATIVE COMPOSITION” (AnalytiCon Discovery - Zweigniederlassung der BRAIN Biotech …, priority 2022, published 2026)
≈ marks a conversion by molar mass, not a printed value.

What was measured:
Test in all cases: Antimicrobial activity (MIC)
Type in all cases: cell-based
[1] = system: Lactobacillus plantarum ssp. plantarum DSM 20174; conditions: Lactiplantibacillus plantarum, DSM20174, potato dextrose broth pH 3.8, visual evaluation, read-out: Minimal Inhibitory Concentration (MIC)
[2] = system: Clostridium sporogenes ATCC 19404; conditions: ATCC19404, potato dextrose broth pH 3.8, visual evaluation, read-out: Minimal Inhibitory Concentration (MIC)
Procedure: Compounds are dissolved at a concentration of 20 mg/ml using 100% DMSO. • Preculture: yeast and bacteria are plated on potato dextrose agar, resuspended in potato dextrose broth and CFU via OD measurement determined; adjusting CFU of the strain in PDB pH 3.8. • Preculture: for mycel forming fungi spores were directly used after thawing of cryopreserved stocks of known titre. • Final titre used for the assay: Yeast strains 5*10^3 CFU/ml, Bacteria 1*10^6 CFU/ml, Fungi (spores) 5*10^4 CFU/ml • Potato dextrose broth pH 3.8 was used as assay matrix • 500 ppm (0.05%) of the compounds were screened (final DMSO 2.5% (v/v)) • Volume: 100 μl in 96-well format • Positive controls: potassium sorbate, sodium benzoate & triclosan • 28° C. to 30° C., static incubation • Incubation time depending on spoilage organism between 2 and 8 days • Visual evaluation (per eye, for fungi with binocular magnification) Antimicrobial activities are reported in Table 1.

[3] = system: Leuconostoc lactis DSM 20202; conditions: DSM20202, potato dextrose broth pH 3.8, visual evaluation, read-out: Minimal Inhibitory Concentration (MIC)
[4] = system: Salmonella enterica ssp. enterica Ser. typhimurium DSM 17058; conditions: potato dextrose broth pH 3.8, visual evaluation, read-out: Minimal Inhibitory Concentration (MIC)
[5] = system: Staphylococcus aureus DSM 2569; conditions: DSM2569, potato dextrose broth pH 3.8, visual evaluation, read-out: Minimal Inhibitory Concentration (MIC)
[6] = system: Brettanomyces naardenensis CBS 6115; conditions: CBS6115, potato dextrose broth pH 3.8, visual evaluation, read-out: Minimal Inhibitory Concentration (MIC)
[7] = system: Leuconostoc mesenteroides ssp. mesenteroides DSM 20343; conditions: DSM20343, potato dextrose broth pH 3.8, visual evaluation, read-out: Minimal Inhibitory Concentration (MIC)
[8] = system: Cutibacterium acnes DSM 1897; conditions: DSM1897, potato dextrose broth pH 3.8, visual evaluation, read-out: Minimal Inhibitory Concentration (MIC)
[9] = system: Saccharomyces cerevisiae DSM 2548; conditions: DSM2548, potato dextrose broth pH 3.8, visual evaluation, read-out: Minimal Inhibitory Concentration (MIC)
[10] = system: Enterococcus faecalis ATCC 7080; conditions: ATCC7080, potato dextrose broth pH 3.8, visual evaluation, read-out: Minimal Inhibitory Concentration (MIC)
[11] = system: Phanerochaete chrysosporium DSM 1556; conditions: Phanerodontia chrysosporium, DSM1556, potato dextrose broth pH 3.8, visual evaluation, read-out: Minimal Inhibitory Concentration (MIC)

| SMILES | MIC [1] | MIC [2] | MIC [3] | MIC [4] | MIC [5] | MIC [6] | MIC [7] | MIC [8] | MIC [9] | MIC [10] | MIC [11] |
| --- | --- | --- | --- | --- | --- | --- | --- | --- | --- | --- | --- |
| C[C@H]1CC[C@@]2(OC1)O[C@H]1CC3C4CC[C@H]5C[C@@H](O[C@@H]6O[C@H](CO)[C@H](O[C@@H]7O[C@H](CO)[C@@H](O)[C@H](O[C@@H]8OC[C@@H](O)[C@H](O)[C@H]8O)[C@H]7O[C@@H]7O[C@H](CO)[C@@H](O)[C@H](O)[C@H]7O)[C@H](O)[C@H]6O)[C@H](O)C[C@]5(C)C4=CC(=O)[C@]3(C)[C@H]1[C@@H]2C (some centres unmarked) [A] | 40 µg/mL (≈ 37.6 µM) | 80 µg/mL (≈ 75.2 µM) | 80 µg/mL (≈ 75.2 µM) | > 80 µg/mL | > 80 µg/mL | > 80 µg/mL | > 80 µg/mL | > 80 µg/mL | > 80 µg/mL | > 80 µg/mL | > 80 µg/mL |
| C[C@@H]1CC[C@@]2(OC1)O[C@H]1CC3C4CC=C5CC(O[C@@H]6O[C@H](CO)[C@@H](O[C@@H]7O[C@@H](C)[C@H](O[C@@H]8O[C@@H](C)[C@H](O)[C@@H](O)[C@H]8O)[C@@H](O)[C@H]7O)[C@H](O)[C@H]6O[C@@H]6O[C@@H](C)[C@H](O)[C@@H](O)[C@H]6O)CC[C@]5(C)C4CC[C@]3(C)[C@@]1(O)[C@@H]2C (some centres unmarked) [B] | 400 µg/mL (≈ 388 µM) | 80 µg/mL (≈ 77.6 µM) | > 80 µg/mL | > 80 µg/mL | > 80 µg/mL | > 80 µg/mL | > 80 µg/mL | > 80 µg/mL | > 80 µg/mL | > 80 µg/mL | > 80 µg/mL |
| CC1CC[C@@]2(OC1)O[C@H]1CC3C4CC=C5C[C@@H](O[C@@H]6O[C@H](CO)[C@@H](O[C@@H]7O[C@@H](C)[C@H](O)[C@@H](O)[C@H]7O)[C@H](O)[C@H]6O[C@@H]6O[C@@H](C)[C@H](O)[C@@H](O)[C@H]6O)CC[C@]5(C)C4CC[C@]3(C)[C@@]1(O)[C@@H]2C (some centres unmarked) [C] | 400 µg/mL (≈ 452 µM) | 80 µg/mL (≈ 90.4 µM) | > 80 µg/mL | > 80 µg/mL | > 80 µg/mL | > 80 µg/mL | > 80 µg/mL | > 80 µg/mL | > 80 µg/mL | > 80 µg/mL | > 80 µg/mL |
| C[C@H]1CC[C@@]2(OC1)O[C@H]1CC3C4CC[C@H]5C[C@@H](O[C@@H]6O[C@H](CO)[C@H](O[C@@H]7O[C@H](CO)[C@@H](O)[C@H](O)[C@H]7O[C@@H]7O[C@H](CO)[C@@H](O)[C@H](O)[C@H]7O)[C@H](O)[C@H]6O)[C@H](O)C[C@]5(C)C4=CC(=O)[C@]3(C)[C@H]1[C@@H]2C (some centres unmarked) [D] | 40 µg/mL (≈ 43 µM) | 80 µg/mL (≈ 85.9 µM) | 80 µg/mL (≈ 85.9 µM) | > 80 µg/mL | > 80 µg/mL | > 80 µg/mL | > 80 µg/mL | > 80 µg/mL | > 80 µg/mL | > 80 µg/mL | > 80 µg/mL |
